pIC50: −log10 of the molar value. The source made the active and inactive calls. The rule behind the calls is not given here.
Key:
Mus musculus [1] = assay: Percentage inhibition against LPS-induced TNF-alpha production in mice at a 10 mg/kg dose; assay type: functional
Mus musculus [2] = assay: Percentage inhibition against LPS-induced TNF-alpha production in mice at a 2 mg/kg dose; assay type: functional
[3] = target: Mitogen-activated protein kinase 14 (Mus musculus, UniProt P47811); assay: Inhibition of murine p38 alpha kinase
Chain of Mitogen-activated protein kinase 14 (P47811 whole entry): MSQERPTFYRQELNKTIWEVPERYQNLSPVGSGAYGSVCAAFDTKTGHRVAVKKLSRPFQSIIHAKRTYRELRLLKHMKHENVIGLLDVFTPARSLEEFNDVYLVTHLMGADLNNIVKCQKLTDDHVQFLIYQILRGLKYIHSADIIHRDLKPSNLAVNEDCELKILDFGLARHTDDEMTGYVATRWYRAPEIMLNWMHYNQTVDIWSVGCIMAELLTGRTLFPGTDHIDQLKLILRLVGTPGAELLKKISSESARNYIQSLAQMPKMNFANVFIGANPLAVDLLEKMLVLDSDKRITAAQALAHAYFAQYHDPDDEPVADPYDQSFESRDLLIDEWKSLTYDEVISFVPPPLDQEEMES

MAP kinase p38 = MAP kinase p38 (Homo sapiens, UniProt O15264+Q15759+Q16539+P53778); assay: Inhibition of LPS-induced p38-related TNF-alpha production in human peripheral blood mononuclear cells; assay type: functional
Mus musculus [4] = assay: Percentage inhibition against LPS-induced TNF-alpha production in mice at a 10 mg/kg dose; Not active; assay type: functional, organism-based; parameters: dose 10 mg/kg

| pIC50 [3] | IC50 (MAP kinase p38) [nM] | Structure (SMILES) | inhibition in vivo at 10 mg/kg (Mus musculus [1]) [%] | inhibition in vivo at 2 mg/kg (Mus musculus [2]) [%] | inhibition (Mus musculus [4]) |
| --- | --- | --- | --- | --- | --- |
| 9.00 | 2 | C[C@H](Nc1cc(-c2c(-c3ccccc3)nc3nc(N)ccn23)ccn1)c1ccccc1 | 96 | 34 |  |
| 6.68 | 90 | COc1nccc(-c2c(-c3ccccc3)nc3nc(N)ccn23)n1 | 87 |  |  |
| 8.70 |  | COC[C@H](C)Nc1cc(-c2c(-c3ccccc3)nc3nc(N)ccn23)ccn1 | 93 |  |  |
| 7.66 |  | Fc1ccc(-c2[nH]c3ccc4[nH]c(Cc5ccccc5)nc4c3c2-c2ccncc2)cc1 | 70 |  |  |
| 8.10 |  | C[C@H](Nc1nccc(-c2c(-c3ccccc3)nc3nc(N)ccn23)n1)c1ccccc1 | 100 | 83 |  |

Second part, the compound before the results:

| Structure (SMILES) | pIC50 [3] | IC50 (MAP kinase p38) [nM] | inhibition in vivo at 10 mg/kg (Mus musculus [1]) [%] | inhibition in vivo at 2 mg/kg (Mus musculus [2]) [%] | inhibition (Mus musculus [4]) |
| --- | --- | --- | --- | --- | --- |
| COc1cc(N)[nH]c2nc(-c3ccc(F)cc3)c(-c3ccncc3)c1-2 |  |  | 75 |  |  |
| Nc1ccn2c(-c3ccnc(N[C@H]4CCCc5ccccc54)c3)c(-c3ccccc3)nc2n1 | 8.10 |  |  |  | inactive |
| Nc1ccn2c(-c3ccnc(NCc4ccccc4)c3)c(-c3ccc(F)cc3)nc2n1 | 8.22 | 6 | 42 |  |  |
| C[C@@H](Nc1nccc(-c2c(-c3ccccc3)nc3nc(N)ccn23)n1)c1ccccc1 | 7.43 |  | 66 |  |  |
| Nc1ccn2c(-c3ccncc3)c(-c3ccc(F)cc3)nc2n1 | 6.24 |  | 97 |  |  |
| CSc1nccc(-c2c(-c3ccccc3)nc3nc(N)ccn23)n1 | 6.34 | 28 | 23 |  |  |
| Nc1ccn2c(-c3ccncn3)c(-c3ccccc3)nc2n1 | 6.00 | 304 | 73 |  |  |
